Measured values reported in PMC10726367 (Journal of Medicinal Chemistry, 2023).
“Also recorded” adds a separate entry of the source.

Target: T1, SERCA2a (Mus musculus, UniProt O55143)
T1 construct: host or cells: HL-1 cells
Test: Caffeine-induced Ca2+ release assay in HL-1 cells (FLIPR Calcium 6)
Format: cell-based
Conditions: for SERCA2a HL-1 effect class: 10 μM (25 μM for 11d), caffeine assay; for effect on caffeine-induced Ca2+ release (in words): 2 h incubation at various concentrations
From the text: It is known that caffeine stimulates the release of calcium from intracellular stores in cells by acting as a RyR activator.[39],[40] The binding site for caffeine is located on the cytosolic side of the protein between the C-terminal and the S2S3 domain.[41] When caffeine binds to RyR2, it interacts with specific amino acids on the protein, which causes conformational changes in the protein’s structure.[42] This opens the RyR2 channel pore, enabling the mass release of calcium ions from the SR. We investigated the effect of caffeine-induced Ca^2+ release in HL-1 cells treated with cytosolic Ca^2+ indicator FLIPR Calcium 6 (Molecular Devices). The HL-1 cell line is an immortalized mouse cardiomyocyte cell line commonly used to study the effects of various substances on cell function.[43] If the tested compound modulates SERCA2a activation, it will cause an increase in Ca^2+ concentration in the SR and the effect of a fixed dose of caffeine on SR Ca^2+ release will be potentiated by increasing doses of a proposed SERCA activator.[26] As a positive control, we used CDN1163, a small-molecule SERCA activator, which is at present in a clinical trial due to its potential therapeutic use for certain cardiac conditions.[27]
HL-1 cells (50,000 per well) were cultivated for 24 h in black-walled, clear-bottom 96-well microplates (Corning, Amsterdam, The Netherlands) covered with fibronectin/gelatin (Merck KGaA, Darmstadt, Germany) in a humidified incubator at 37 °C and 5% CO2.
Changes in Ca^2+ concentration were measured on a multiwell plate reader TECAN Spark 20 M using a FLIPR 6 Calcium Assay Kit from Molecular Devices (Molecular Devices LLC, München, Germany) at 37 °C. The 1000 × stock solutions of the test compounds were prepared in DMSO. A 100 μL solution of test compound in Tyrode’s solution containing FLIPR Calcium 6 dye was incubated for 2 h at 37 °C and 5% CO2 in a humidified incubator. The time courses were recorded in each well. Fluorescence was evoked at 485 nm excitation wavelength and read out in a bottom-read mode at 525 nm. Data were recorded every 2 s, exposure −20 flashes, excitation bandwidth −10 nm, emission bandwidth −15 nm. To initiate Ca^2+ influx, 25 μL of 50 mM caffeine solution in Tyrode’s solution containing 2 mM CaCl2 was injected in each well (speed 100 μL/s) at the 10 s time point, resulting in 10 mM final concentration in the well. The differences between the caffeine-induced peak minus basal fluorescence, ΔFCaff, were taken into account for the analysis. The Tyrode’s solution +0.1 v/v% DMSO was used as a control. The dose–response curves were calculated using the software package GraphPad Prism version 8.3.1. All data are presented as mean ± SD from eight independent experiments. Y = bottom + (top – bottom)/(1 + 10^((LogEC50 – X) × HillSlope)) was used, where HillSlope describes the steepness of the curve and top and bottom are plateaus in the units of the Y axis.

T1 sequence (O55143 1-998 isoform O55143-2): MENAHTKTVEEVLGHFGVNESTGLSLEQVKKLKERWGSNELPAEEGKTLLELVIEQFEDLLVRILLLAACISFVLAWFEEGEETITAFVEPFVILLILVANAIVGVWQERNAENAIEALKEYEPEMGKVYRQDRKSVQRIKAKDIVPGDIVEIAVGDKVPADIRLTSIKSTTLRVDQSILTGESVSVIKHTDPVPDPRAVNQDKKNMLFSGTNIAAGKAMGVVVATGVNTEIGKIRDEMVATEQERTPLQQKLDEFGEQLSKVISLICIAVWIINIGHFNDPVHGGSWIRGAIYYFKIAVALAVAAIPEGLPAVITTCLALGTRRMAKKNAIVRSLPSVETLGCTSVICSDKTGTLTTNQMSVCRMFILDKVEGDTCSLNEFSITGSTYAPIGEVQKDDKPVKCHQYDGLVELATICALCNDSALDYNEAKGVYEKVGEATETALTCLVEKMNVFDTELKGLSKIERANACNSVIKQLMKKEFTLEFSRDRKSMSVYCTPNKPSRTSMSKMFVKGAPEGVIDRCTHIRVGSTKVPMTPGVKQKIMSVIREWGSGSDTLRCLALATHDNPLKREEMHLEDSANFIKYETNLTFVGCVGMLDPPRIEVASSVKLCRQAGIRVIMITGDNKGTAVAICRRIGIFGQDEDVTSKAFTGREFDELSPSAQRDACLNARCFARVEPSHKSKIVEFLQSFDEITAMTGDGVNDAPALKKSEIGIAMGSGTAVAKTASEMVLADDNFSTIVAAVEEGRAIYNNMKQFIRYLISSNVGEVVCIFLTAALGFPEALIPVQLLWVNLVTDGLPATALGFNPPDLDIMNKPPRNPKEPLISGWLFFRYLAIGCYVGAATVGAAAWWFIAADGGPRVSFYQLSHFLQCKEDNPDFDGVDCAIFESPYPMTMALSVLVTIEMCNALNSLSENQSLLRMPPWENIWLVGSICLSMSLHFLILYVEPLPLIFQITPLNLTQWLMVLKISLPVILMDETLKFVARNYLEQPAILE

| Structure (SMILES) | SERCA2a HL-1 effect class | EC50 (HL-1 cells, 10 mM caffeine, value, interval) [µM] | effect on caffeine-induced Ca2+ release (in words) (HL-1 cells, 10 mM caffeine) |
| --- | --- | --- | --- |
| COc1ccc2c(c1)CN(CCCCNCCCCC1(O)CC1)CCS2 [11a, 1-(4-((4-(7-Methoxy-2,3-dihydrobenzo[1,4-f]thiazepin-4(5H)-yl)butyl)amino)butyl)cyclopropan-1-ol] | + | – | most potent |
| COc1ccc2c(c1)CN(CCCCC1(O)CC1)CCS2 [11d, 1-(4-(7-Methoxy-2,3-dihydrobenzo[1,4-f]thiazepin-4(5H)-yl)butyl)cyclopropan-1-ol] | + | – | least efficacious; also recorded: no saturation effect at concentrations up to 50 μM; also recorded: slight |
| COc1ccc(SCCCNCCCCC2(O)CC2)cc1 [11c, 1-(4-((3-((4-Methoxyphenyl)thio)propyl)amino)butyl)cyclopropan-1-ol] | ++ | – | – |
| COc1ccc(OCCCNCCCCC2(O)CC2)cc1 [11b, 1-(4-((3-(4-Methoxyphenoxy)propyl)amino)butyl)cyclopropan-1-ol] | ++ | – | – |

Now from value to molecule, other results behind:

| SERCA2a HL-1 effect class | EC50 (HL-1 cells, 10 mM caffeine, value, interval) [µM] | Structure (SMILES) | effect on caffeine-induced Ca2+ release (in words) (HL-1 cells, 10 mM caffeine) |
| --- | --- | --- | --- |
| +++ and ++ | – | COc1ccc(SCCCN(CCCCC2(O)CC2)CCCCC2(O)CC2)cc1 [12c, 1,1′-(((3-((4-Methoxyphenyl)thio)propyl)azanediyl)bis(butane-4,1-diyl))bis(cyclopropan-1-ol)] | most efficacious; also recorded: stronger activating effect on caffeine-induced Ca^2+ release at concentrations above 10 μM |
| + | – | COc1ccc2c(c1)CN(Cc1ccc(C(=O)O)cc1)CCS2 [ARM210, reference compound] | clear concentration-dependent effect |
| ++ | 9.2 | COc1ccc2c(c1)CN(CCCCN(CCCCC1(O)CC1)CCCCC1(O)CC1)CCS2 [12a, 1,1′-(((4-(7-Methoxy-2,3-dihydrobenzo[1,4-f]thiazepin-4(5H)-yl)butyl)azanediyl)bis(butane-4,1-diyl))bis(cyclopropan-1-ol)] | – |
